Assay results from ChEMBL document CHEMBL1201861, “Genomics of Drug Sensitity in Cancer screening data, Wellcome Trust Sanger Institute”.

Columns and labels:
Test in all cases: cells
[1] = test system: CP66-MEL; assay type: functional, cell-based, Homo sapiens; details: Homo sapiens, CP66-MEL;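 note: growth inhibition of CP66-MEL cells determined in a cell viability assay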
Description: SANGER: Inhibition of human CP66-MEL cell growth in a cell viability assay.

[2] = test system: D-263MG; assay type: functional, cell-based, Homo sapiens; details: Homo sapiens, D-263MG
Description: SANGER: Inhibition of human D-263MG cell growth in a cell viability assay.

[3] = test system: D-392MG; assay type: functional, cell-based, Homo sapiens; details: Homo sapiens, D-392MG
[4] = test system: DEL; assay type: functional, cell-based; details: Homo sapiens;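 note: growth inhibition of the human DEL cell line, read out with a cell viability assay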
Description: SANGER: Inhibition of human DEL cell growth in a cell viability assay.

[5] = test system: EC-GI-10; assay type: functional, cell-based, Homo sapiens; details: Homo sapiens, EC-GI-10
Description: SANGER: Inhibition of human EC-GI-10 cell growth in a cell viability assay.

[6] = test system: EKVX; assay type: functional, cell-based, Homo sapiens; details: Homo sapiens, EKVX;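 note: growth inhibition of human EKVX cells, read out with a cell viability assay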
Description: SANGER: Inhibition of human EKVX cell growth in a cell viability assay.

[7] = test system: GI-1; assay type: functional, cell-based, Homo sapiens; details: Homo sapiens, GI-1;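 note: growth inhibition of human GI-1 cells, measured with a cell viability readout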
Description: SANGER: Inhibition of human GI-1 cell growth in a cell viability assay.

[8] = test system: HC-1; assay type: functional, cell-based; details: Homo sapiens;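 note: growth inhibition of HC-1 cells measured by a cell viability assay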
Description: SANGER: Inhibition of human HC-1 cell growth in a cell viability assay.

[9] = test system: HCE-T; assay type: functional, cell-based, Homo sapiens; details: Homo sapiens, HCE-T;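 note: cell viability assay read-out, reporting inhibition of HCE-T cell growth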
Description: SANGER: Inhibition of human HCE-T cell growth in a cell viability assay.

[10] = test system: HD-MY-Z; assay type: functional, cell-based, Homo sapiens; details: Homo sapiens, HD-MY-Z;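 note: growth inhibition of HD-MY-Z cells, read out with a cell viability assay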
Description: SANGER: Inhibition of human HD-MY-Z cell growth in a cell viability assay.

[11] = test system: JVM-3; assay type: functional, cell-based; details: Homo sapiens;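 note: growth inhibition of human JVM-3 cells, read out with a cell viability assay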
Description: SANGER: Inhibition of human JVM-3 cell growth in a cell viability assay.

[12] = test system: KP-N-YS; assay type: functional, cell-based; details: Homo sapiens;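 note: cell viability assay measuring inhibition of cell line growth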
Description: SANGER: Inhibition of human KP-N-YS cell growth in a cell viability assay.

[13] = test system: MMAC-SF; assay type: functional, cell-based, Homo sapiens; details: Homo sapiens, MMAC-SF;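 note: growth inhibition of human MMAC-SF cells, read out with a cell viability assay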
Description: SANGER: Inhibition of human MMAC-SF cell growth in a cell viability assay.

[14] = test system: MN-60; assay type: functional, cell-based; details: Homo sapiens;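 note: growth inhibition of the MN-60 cell line, determined with a cell viability assay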
Description: SANGER: Inhibition of human MN-60 cell growth in a cell viability assay.

[15] = test system: MOLT-4; assay type: functional, cell-based; details: Homo sapiens;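 note: growth inhibition of MOLT-4 cells, determined with a cell viability readout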
Description: SANGER: Inhibition of human MOLT-4 cell growth in a cell viability assay.

[16] = test system: MS-1; assay type: functional, cell-based; details: Homo sapiens;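 note: growth inhibition of MS-1 cells, read out by cell viability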
Description: SANGER: Inhibition of human MS-1 cell growth in a cell viability assay.

[17] = test system: Mo; assay type: functional, cell-based; details: Homo sapiens
Description: SANGER: Inhibition of human Mo-T cell growth in a cell viability assay.

[18] = test system: NB12; assay type: functional, cell-based, Homo sapiens; details: Homo sapiens, NB12;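 note: growth inhibition of human NB12 cells, read out by a cell viability assay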
Description: SANGER: Inhibition of human NB12 cell growth in a cell viability assay.

[19] = test system: NCI-H1299; assay type: functional, cell-based, Homo sapiens; details: Homo sapiens, NCI-H1299;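 note: growth inhibition of human NCI-H1299 cells, read out by a cell viability assay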
Description: SANGER: Inhibition of human NCI-H1299 cell growth in a cell viability assay.

[20] = test system: NCI-H446; assay type: functional, cell-based; details: Homo sapiens;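 note: growth inhibition of NCI-H446 cells determined by a cell viability assay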
Description: SANGER: Inhibition of human NCI-H446 cell growth in a cell viability assay.

[21] = test system: NCI-H69; assay type: functional, cell-based; details: Homo sapiens;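 note: growth inhibition of the cell line, read out with a cell viability assay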
Description: SANGER: Inhibition of human NCI-H69 cell growth in a cell viability assay.

[22] = test system: NH-12; assay type: functional, cell-based, Homo sapiens; details: Homo sapiens, NH-12;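 note: growth inhibition of NH-12 cells, read out with a cell viability assay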
Description: SANGER: Inhibition of human NH-12 cell growth in a cell viability assay.

[23] = test system: OCI-AML2; assay type: functional, cell-based; details: Homo sapiens;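 note: growth inhibition of OCI-AML2 cells, read out with a cell viability assay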
Description: SANGER: Inhibition of human OCI-AML2 cell growth in a cell viability assay.

[24] = test system: P30-OHK; assay type: functional, cell-based; details: Homo sapiens;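 note: growth inhibition of the P30-OHK cell line, read out with a cell viability assay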
Description: SANGER: Inhibition of human P30-OHK cell growth in a cell viability assay.

[25] = test system: SHP77; assay type: functional, cell-based, Homo sapiens, SHP-77; details: Homo sapiens, SHP77;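 note: growth inhibition of human SHP-77 cells measured by a cell viability assay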
Description: SANGER: Inhibition of human SHP-77 cell growth in a cell viability assay.

[26] = test system: SK-N-DZ; assay type: functional, cell-based, Homo sapiens; details: Homo sapiens, SK-N-DZ;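 note: growth inhibition of the cancer cell line, read out through a viability assay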
Description: SANGER: Inhibition of human SK-N-DZ cell growth in a cell viability assay.

[27] = test system: SW872; assay type: functional, cell-based, Homo sapiens; details: Homo sapiens, SW872;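 note: growth inhibition of SW872 cells, read out by a viability assay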
Description: SANGER: Inhibition of human SW872 cell growth in a cell viability assay.

[28] = test system: 697; assay type: functional, cell-based; details: Homo sapiens
Description: SANGER: Inhibition of human 697 cell growth in a cell viability assay.

[29] = test system: ACN; assay type: functional, cell-based, Homo sapiens; details: Homo sapiens, ACN;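 note: growth inhibition of the human ACN cell line, read out via cell viability testing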
Description: SANGER: Inhibition of human ACN cell growth in a cell viability assay.

[30] = test system: CGTH-W-1; assay type: functional, cell-based, Homo sapiens; details: Homo sapiens, CGTH-W-1;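 note: growth inhibition of human CGTH-W-1 cells measured by cell viability assay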
Description: SANGER: Inhibition of human CGTH-W-1 cell growth in a cell viability assay.

[31] = test system: COLO-684; assay type: functional, cell-based; details: Homo sapiens
Description: SANGER: Inhibition of human COLO-684 cell growth in a cell viability assay.

SMILES | IC50 [1] | IC50 [2] | IC50 [3] | IC50 [4] | IC50 [5] | IC50 [6] | IC50 [7] | IC50 [8] | IC50 [9] | IC50 [10] | IC50 [11] | IC50 [12] | IC50 [13] | IC50 [14] | IC50 [15] | IC50 [16] | IC50 [17] | IC50 [18] | IC50 [20] | IC50 [21] | other results
C=C1C(=O)O[C@@H]2C3O[C@]3(C)CC/C=C(\C)CC[C@@H]12 (some centres not stated) | > 5 µM | > 5 µM | > 5 µM | > 5 µM | > 5 µM | > 5 µM | > 5 µM | > 5 µM | > 5 µM | > 5 µM | > 5 µM | > 5 µM | > 5 µM | > 5 µM | > 5 µM | > 5 µM | > 5 µM | > 5 µM | > 5 µM | > 5 µM | IC50 [19]: > 5 µM; IC50 [22]: > 5 µM; IC50 [23]: > 5 µM; IC50 [24]: > 5 µM; IC50 [25]: > 5 µM; IC50 [26]: 4.65 µM; IC50 [27]: > 5 µM; IC50 [28]: 0.465 µM; IC50 [29]: > 5 µM; IC50 [30]: > 5 µM; IC50 [31]: > 5 µM
CC1=C2C[C@H]3[C@@H](CC=C4C[C@@H](O)CC[C@@]43C)[C@@H]2CC[C@]12O[C@@H]1C[C@H](C)CN[C@H]1[C@H]2C [CYCLOPAMINE] | > 16 µM | > 16 µM | > 16 µM | > 16 µM | > 16 µM | > 16 µM | > 16 µM | > 16 µM | > 16 µM | > 16 µM | > 16 µM | > 16 µM | > 16 µM | > 16 µM | > 16 µM | > 16 µM | > 16 µM | > 16 µM | > 16 µM | > 16 µM | IC50 [22]: > 16 µM; IC50 [23]: > 16 µM; IC50 [24]: > 16 µM; IC50 [25]: > 16 µM; IC50 [26]: > 16 µM; IC50 [27]: > 16 µM; IC50 [28]: > 16 µM; IC50 [29]: > 16 µM; IC50 [30]: > 16 µM; IC50 [31]: > 16 µM
CS(=O)(=O)CCNCc1ccc(-c2ccc3ncnc(Nc4ccc(OCc5cccc(F)c5)c(Cl)c4)c3c2)o1 [LAPATINIB] | > 2 µM | > 2 µM | > 2 µM | > 2 µM | > 2 µM | 0.449 µM | > 2 µM | > 2 µM | > 2 µM | > 2 µM | > 2 µM | > 2 µM | > 2 µM | > 2 µM | > 2 µM | > 2 µM | > 2 µM | > 2 µM | > 2 µM | > 2 µM | IC50 [22]: > 2 µM; IC50 [23]: > 2 µM; IC50 [24]: > 2 µM; IC50 [25]: > 2 µM; IC50 [26]: > 2 µM; IC50 [27]: > 2 µM; IC50 [28]: > 2 µM; IC50 [29]: > 2 µM; IC50 [30]: > 2 µM; IC50 [31]: > 2 µM
CCc1nc(N)nc(N)c1-c1ccc(Cl)cc1 [PYRIMETHAMINE] | > 20 µM | > 20 µM | > 20 µM | 3.93 µM | > 20 µM | > 20 µM | > 20 µM | 5.65 µM | > 20 µM | 11.9 µM | > 20 µM | > 20 µM | > 20 µM | > 20 µM | 5.43 µM | > 20 µM | > 20 µM | > 20 µM | > 20 µM | > 20 µM | IC50 [19]: > 20 µM; IC50 [22]: > 20 µM; IC50 [23]: 8.5 µM; IC50 [24]: > 20 µM; IC50 [25]: > 20 µM; IC50 [26]: > 20 µM; IC50 [27]: > 20 µM; IC50 [28]: 3.6 µM; IC50 [29]: 2.3 µM; IC50 [30]: 17.5 µM; IC50 [31]: 6.76 µM
